Patent publication US20240269298A1, “PHOSPHONYL DERIVATIVE, AND COMPOSITION AND PHARMACEUTICAL APPLICATION THEREOF” (XIZANG HAISCO PHARMACEUTICAL CO., LTD., priority 2021, published 2024)
Where two headings read alike, the source gives them in different places.

What was measured:
[1] = test system: A431 (EGFR-WT) cells; experiment: Inhibitory activity on proliferation of A431 (EGFR-WT) cells (CTG, 72 h); format: cell-based; details: Homo sapiens, A-431
Description: NCI-H1975 (EGFR-L858R-T790M) and A431 (EGFR-WT) cells were purchased from ATCC and cultured in an incubator at 37° C. with 5% CO2, and the culture mediums were RPMI1640+10% FBS and DMEM+10% FBS, respectively. On the first day, NCI-H1975 (EGFR-L858R-T790M) and A431 (EGFR-WT) cells in the logarithmic phase were collected, and viable cells were counted using an automatic cell analyzer (countstar). The cell suspensions were adjusted with the culture mediums and plated on a 96-well cell culture plate at 1000 cells/well for NCI-H1975 (EGFR-L858R-T790M) cells and at 3000 cells/well for A431 cells. The next day, the culture mediums were aspirated, and 90 μL of fresh culture mediums and 10 μL of the compounds at different concentrations were added to each well, wherein the final concentration of DMSO in each well was 0.1%. The plate was cultured in the incubator at 37° C. with 5% CO2 for 72 hours. After 72 hours of drug treatment, 50 μL of CTG solution (promega, G7572), which was already pre-melted and equilibrated to room temperature, was added to each well, and the mixtures were uniformly mixed for 2 min using a microplate shaker. The plate was placed at room temperature for 10 min, and then […] signal values were measured using a microplate reader (PHERAstar FSX).
Surviving cells % was calculated based on Vsample/Vvehicle control×100%, wherein Vsample was the readout of the drug-treated group, and Vvehicle control was the average value of the vehicle control group. Using the origin 9.2 software and nonlinear regression model, S-shaped dose-survival curves were plotted, and IC50 values were calculated.

[2] = test system: NCI-H1975 (EGFR-L858R-T790M) cells; experiment: Inhibitory activity on proliferation of NCI-H1975 (EGFR-L858R-T790M) cells (CTG, 72 h); format: cell-based; details: Homo sapiens
In short: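 Cells plated at 1000/well (NCI-H1975, RPMI1640+10% FBS) or 3000/well (A431, DMEM+10% FBS), dosed next day with compounds (0.1% DMSO final) for 72 h at 37 °C, 5% CO2. Viability by CTG luminescence, normalised to vehicle control; IC50 from nonlinear-regression dose-survival curves.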

[3] = read-out: IC50 (value in brackets)

Compound	IC50 [1] [nM]	IC50 ([2]; read-out: IC50 (class symbol)) [nM]	IC50 [2, 3] [nM]
COc1cc(N2CCC(CN3CCCC4(CCN(c5ccc6c(c5)C(=O)N(C5CCC(=O)NC5=O)C6=O)CC4)C3)CC2)c(-c2cnn(C)c2)cc1Nc1ncc(Cl)c(Nc2ccc3nccnc3c2P(C)(C)=O)n1 (stereo not shown) [Compound 1, 5-(2-((1-(4-((5-chloro-4-((5-(dimethylphosphoryl)quinoxalin-6-yl)amino)pyrimidin-2-yl)amino)-5-methoxy-2-(1-methyl-1H-pyrazol-4-yl)phenyl)piperidin-4-yl)methyl)-2,9-diazaspiro[5.5]undecan-9-yl)-2-(2,6-dioxopiperidin-3-yl)isoindoline-1,3-dione]	≥ 10000	< 100	43
COc1cc(N2CCC(C3CCN(CC4CCN(c5ccc6c(c5)C(=O)N(C5CCC(=O)NC5=O)C6=O)CC4)CC3)CC2)c(-c2cnn(C)c2)cc1Nc1ncc(Br)c(Nc2ccc(-c3ccccc3)cc2P(C)(C)=O)n1 (stereo not shown) [Compound 36, 5-(4-((1′-(4-((5-bromo-4-((3-(dimethylphosphoryl)-[1,1′-biphenyl]-4-yl)amino)pyrimidin-2-yl)amino)-5-methoxy-2-(1-methyl-1H-pyrazol-4-yl)phenyl)-[4,4′-bipiperidin]-1-yl)methyl)piperidin-1-yl)-2-(2,6-dioxopiperidin-3-yl)isoindoline-1,3-dione]	≥ 10000	100 to 500	165
CCn1cc(-c2cc(Nc3ncc(Br)c(Nc4ccc(-c5ccccc5)cc4P(C)(C)=O)n3)c(OC)cc2N2CCC(CN3CCN(c4ccc5c(c4)C(=O)N(C4CCC(=O)NC4=O)C5=O)CC3)CC2)cn1 (stereo not shown) [Compound 111, 5-(4-((1-(4-((5-bromo-4-((3-(dimethylphosphoryl)-[1,1′-biphenyl]-4-yl)amino)pyrimidin-2-yl)amino)-2-(1-ethyl-1H-pyrazol-4-yl)-5-methoxyphenyl)piperidin-4-yl)methyl)piperazin-1-yl)-2-(2,6-dioxopiperidin-3-yl)isoindoline-1,3-dione]	≥ 10000	100 to 500	209
COc1cc(N2CCC3(CC2)CC(N2CCN(c4ccc5c(c4)C(=O)N(C4CCC(=O)NC4=O)C5=O)CC2)C3)c(-c2cnn(C)c2)cc1Nc1ncc(Br)c(Nc2ccc(-c3ccccc3)cc2P(C)(C)=O)n1 (stereo not shown) [Compound 83, 5-(4-(7-(4-((5-bromo-4-((3-(dimethylphosphoryl)-[1,1′-biphenyl]-4-yl)amino)pyrimidin-2-yl)amino)-5-methoxy-2-(1-methyl-1H-pyrazol-4-yl)phenyl)-7-azaspiro[3.5]nonan-2-yl)piperazin-1-yl)-2-(2,6-dioxopiperidin-3-yl)isoindoline-1,3-dione]	≥ 10000	100 to 500	126
COc1cc(N2CCC3(CCC(N4CCN(c5ccc6c(c5)C(=O)N(C5CCC(=O)NC5=O)C6=O)CC4)CC3)CC2)c(-c2cnn(C)c2)cc1Nc1ncc(Br)c(Nc2ccc(-c3ccccc3)cc2P(C)(C)=O)n1 (stereo not shown) [Compound 82, 5-(4-(3-(4-((5-bromo-4-((3-(dimethylphosphoryl)-[1,1′-biphenyl]-4-yl)amino)pyrimidin-2-yl)amino)-5-methoxy-2-(1-methyl-1H-pyrazol-4-yl)phenyl)-3-azaspiro[5.5]undecan-9-yl)piperazin-1-yl)-2-(2,6-dioxopiperidin-3-yl)isoindoline-1,3-dione]	≥ 10000	< 100	90
COc1cc(N2CCN(C3CCN(CC4CCN(c5ccc6c(c5)C(=O)N(C5CCC(=O)NC5=O)C6=O)CC4)CC3)CC2)c(-c2cnn(C)c2)cc1Nc1ncc(Br)c(Nc2ccc(-c3ccccc3)cc2P(C)(C)=O)n1 (stereo not shown) [Compound 42, 5-(4-((4-(4-(4-((5-bromo-4-((3-(dimethylphosphoryl)-[1,1′-biphenyl]-4-yl)amino)pyrimidin-2-yl)amino)-5-methoxy-2-(1-methyl-1H-pyrazol-4-yl)phenyl)piperazin-1-yl)piperidin-1-yl)methyl)piperidin-1-yl)-2-(2,6-dioxopiperidin-3-yl)isoindoline-1,3-dione]	≥ 10000	< 100	59
COc1cc(N2CCN(C3CN(c4ccc5c(c4)C(=O)N(C4CCC(=O)NC4=O)C5=O)C3)CC2)c(-c2cnn(C)c2)cc1Nc1ncc(Cl)c(Nc2ccc(C3CC3)cc2P(C)(C)=O)n1 (stereo not shown) [Compound 148, 5-(3-(4-(4-((5-chloro-4-((4-cyclopropyl-2-(dimethylphosphoryl)phenyl)amino)pyrimidin-2-yl)amino)-5-methoxy-2-(1-methyl-1H-pyrazol-4-yl)phenyl)piperazin-1-yl)azetidin-1-yl)-2-(2,6-dioxopiperidin-3-yl)isoindoline-1,3-dione]	≥ 10000	< 100	79
COc1cc(N2CCN(C3CCN(CC4CCN(c5ccc6c(c5)C(=O)N(C5CCC(=O)NC5=O)C6=O)CC4)CC3)CC2)c(-c2cnn(C)c2)cc1Nc1ncc(Cl)c(Nc2ccc(-c3ccccc3)cc2P(C)(C)=O)n1 (stereo not shown) [Compound 40, 5-(4-((4-(4-(4-((5-chloro-4-((3-(dimethylphosphoryl)-[1,1′-biphenyl]-4-yl)amino)pyrimidin-2-yl)amino)-5-methoxy-2-(1-methyl-1H-pyrazol-4-yl)phenyl)piperazin-1-yl)piperidin-1-yl)methyl)piperidin-1-yl)-2-(2,6-dioxopiperidin-3-yl)isoindoline-1,3-dione]	≥ 10000	< 100	55
COc1cc(N2CCC(CN3CCN(c4ccc(C(=O)NC5CCC(=O)NC5=O)nc4)CC3)CC2)c(-c2cnn(C)c2)cc1Nc1ncc(Cl)c(Nc2ccc(-c3ccccc3)cc2P(C)(C)=O)n1 (stereo not shown) [Compound 66, 5-(4-((1-(4-((5-chloro-4-((3-(dimethylphosphoryl)-[1,1′-biphenyl]-4-yl)amino)pyrimidin-2-yl)amino)-5-methoxy-2-(1-methyl-1H-pyrazol-4-yl)phenyl)piperidin-4-yl)methyl)piperazin-1-yl)-N-(2,6-dioxopiperidin-3-yl)picolinamide]	≥ 10000	< 100	99
COc1cc(N2CCN(C3CCN(CC4CCN(c5cc6c(cc5F)C(=O)N(C5CCC(=O)NC5=O)C6=O)CC4)CC3)CC2)c(-c2cnn(C)c2)cc1Nc1ncc(Cl)c(Nc2ccc(-c3ccccc3)cc2P(C)(C)=O)n1 (stereo not shown) [Compound 50, 5-(4-((4-(4-(4-((5-chloro-4-((3-(dimethylphosphoryl)-[1,1′-biphenyl]-4-yl)amino)pyrimidin-2-yl)amino)-5-methoxy-2-(1-methyl-1H-pyrazol-4-yl)phenyl)piperazin-1-yl)piperidin-1-yl)methyl)piperidin-1-yl)-2-(2,6-dioxopiperidin-3-yl)-6-fluoroisoindoline-1,3-dione]	≥ 10000	100 to 500	133
COc1cc(N2CCC(CN3CCN(c4ccc5c(c4)C(=O)N([C@@H]4CCC(=O)NC4=O)C5=O)CC3)CC2)c(-c2cnn(C)c2)cc1Nc1ncc(Br)c(Nc2ccc(C3CC3)cc2P(C)(C)=O)n1 [Compound 171]	≥ 10000	< 100	77
COc1cc(N2CCC(F)(CN3CCN(c4ccc5c(c4)C(=O)N(C4CCC(=O)NC4=O)C5=O)CC3)CC2)c(-c2cnn(C)c2)cc1Nc1ncc(Br)c(Nc2ccc(C3CC3)cc2P(C)(C)=O)n1 (stereo not shown) [Compound 147, 5-(4-((1-(4-((5-bromo-4-((4-cyclopropyl-2-(dimethylphosphoryl)phenyl)amino)pyrimidin-2-yl)amino)-5-methoxy-2-(1-methyl-1H-pyrazol-4-yl)phenyl)-4-fluoropiperidin-4-yl)methyl)piperazin-1-yl)-2-(2,6-dioxopiperidin-3-yl)isoindoline-1,3-dione]	≥ 10000	100 to 500	103
COc1cc(N2CCC3(CCN(c4ccc5c(c4)C(=O)N(C4CCC(=O)NC4=O)C5=O)CC3)CC2)c(-c2cnn(C)c2)cc1Nc1ncc(Cl)c(Nc2ccc(F)cc2P(C)(C)=O)n1 (stereo not shown) [Compound 162, 5-(9-(4-((5-chloro-4-((2-(dimethylphosphoryl)-4-fluorophenyl)amino)pyrimidin-2-yl)amino)-5-methoxy-2-(1-methyl-1H-pyrazol-4-yl)phenyl)-3,9-diazaspiro[5.5]undecan-3-yl)-2-(2,6-dioxopiperidin-3-yl)isoindoline-1,3-dione]	≥ 10000	100 to 500	134
COc1cc(N2CCC3(CCN(c4ccc5c(c4)C(=O)N(C4CCC(=O)NC4=O)C5=O)CC3)CC2)c(-c2cnn(C)c2)cc1Nc1ncc(Br)c(Nc2ccc(C3CC3)cc2P(C)(C)=O)n1 (stereo not shown) [Compound 165, 5-(9-(4-((5-bromo-4-((4-cyclopropyl-2-(dimethylphosphoryl)phenyl)amino)pyrimidin-2-yl)amino)-5-methoxy-2-(1-methyl-1H-pyrazol-4-yl)phenyl)-3,9-diazaspiro[5.5]undecan-3-yl)-2-(2,6-dioxopiperidin-3-yl)isoindoline-1,3-dione]	≥ 10000		
